According to patent publication US20130157953A1, “TREATMENT OF CARDIAC CONDITIONS” (Zealand Pharma A/S, priority 2010, published 2013):
Numbered stars: 1 amine (or outer) side, 2 acyl side, 3 side chain; on linkers, the order of the positions; unused ones are H or OH. Bridge positions count the residues as written; N and C are the ends. Square brackets hold non-standard residues; d marks the D form. Side chains are listed from the residue outwards. Peptide text beside a SMILES is read from it. * marks the point of attachment. γGlu = O=C(O)[C@H](CCC(=O)[*:2])N[*:1]; Palmitoyl = CCCCCCCCCCCCCCCC(=O)*; Aib = CC(C)(N)C(=O)O

What was measured:
human GLP-1R = biological target: T1, human GLP-1R (Homo sapiens, UniProt P43220); assay: cAMP formation in HEK293 cells expressing human GLP-1R; assay type: cell-based; settings: 15 min at 37° C.
T1 construct: expressed in transfected cells; host or cells: HEK293
T1 sequence (P43220 24-463): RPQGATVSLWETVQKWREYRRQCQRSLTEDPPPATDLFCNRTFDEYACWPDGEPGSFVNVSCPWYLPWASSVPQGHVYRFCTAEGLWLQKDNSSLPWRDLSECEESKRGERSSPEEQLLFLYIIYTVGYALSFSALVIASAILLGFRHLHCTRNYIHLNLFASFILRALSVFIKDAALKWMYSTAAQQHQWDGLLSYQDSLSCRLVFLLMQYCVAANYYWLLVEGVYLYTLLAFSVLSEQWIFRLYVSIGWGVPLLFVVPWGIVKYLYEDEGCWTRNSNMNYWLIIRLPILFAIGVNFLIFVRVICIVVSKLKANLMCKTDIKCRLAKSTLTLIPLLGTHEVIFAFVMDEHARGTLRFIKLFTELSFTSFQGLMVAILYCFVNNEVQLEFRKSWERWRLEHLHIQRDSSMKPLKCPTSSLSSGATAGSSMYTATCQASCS
From the text: (§1) Similarly, activation of the GLP-1 receptor by a GLP-1 agonist will stimulate cellular cAMP formation. Thus, production of cAMP in suitable cells expressing one of these two receptors can be used to monitor the relevant receptor activity.
(§2) The skilled person will be aware of suitable assay formats, and examples are provided below. […] (Where sequences of precursor proteins are referred to, it should of course be understood that assays may make use of the mature protein, lacking the signal sequence).
(§3) On the day of analysis, growth medium was removed and the cells washed once with 200 μl Tyrode buffer. Cells were incubated in […] containing increasing concentrations of test peptides, 100 μM IBMX, and 6 mM glucose for 15 min at 37° C. The reaction was stopped by addition of 25 μl 0.5 M HCl and incubated on ice for 60 min. The cAMP content was estimated using the FlashPlate® cAMP kit from Perkin-Elmer. EC50 values were estimated by computer aided curve fitting.

human glucagon receptor = biological target: T2, human glucagon receptor (Homo sapiens, UniProt P47871); assay: cAMP formation in HEK293 cells expressing the human glucagon receptor; assay type: cell-based; settings: 15 min at 37° C., read-out: EC50 (nM) GuR
T2 construct: expressed in transfected cells; host or cells: HEK293
T2 sequence (P47871 26-477): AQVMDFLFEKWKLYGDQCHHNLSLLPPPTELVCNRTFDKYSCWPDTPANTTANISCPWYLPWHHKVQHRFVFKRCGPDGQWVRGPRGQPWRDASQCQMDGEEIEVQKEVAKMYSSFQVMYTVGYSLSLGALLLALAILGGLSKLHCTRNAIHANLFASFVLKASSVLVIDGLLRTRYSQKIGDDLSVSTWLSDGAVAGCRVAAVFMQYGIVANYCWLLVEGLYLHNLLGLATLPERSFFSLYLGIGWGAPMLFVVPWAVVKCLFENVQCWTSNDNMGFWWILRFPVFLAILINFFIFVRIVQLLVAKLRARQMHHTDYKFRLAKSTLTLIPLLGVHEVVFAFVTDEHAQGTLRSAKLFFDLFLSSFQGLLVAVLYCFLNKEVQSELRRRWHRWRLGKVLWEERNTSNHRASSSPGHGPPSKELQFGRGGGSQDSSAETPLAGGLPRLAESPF
From the text: as §1, §2, §3

Row | Compound | EC50 (human GLP-1R) | EC50 (human glucagon receptor)
1 | H-HSQGTFTSDYSKYLDSRSAQDFVWLMNT-NH2 [Compound 245] | 0.1 nM | 0.05 nM
2 | H-HSQGTFTSDYSRYLDSRRAQDFVWLLNK-NH2 [Compound 254] | 0.2 nM | 0.2 nM
3 | H-HSQGTFTSDYSKYLDSRAAQDFVWLMNT-NH2 [Compound 246] | 0.3 nM | 0.05 nM
4 | H-HSQGTFTSDYSRYLDSRRAKDFVWLLNT-NH2 [Compound 252] | 0.5 nM | –
5 | CCCCCCCCCCCCCCCC(=O)N[C@@H](CCC(=O)NCCCC[C@H](NC(=O)[C@H](CO)NC(=O)[C@H](CC(=O)O)NC(=O)[C@H](CC(C)C)NC(=O)[C@H](Cc1ccc(O)cc1)NC(=O)[C@H](CCCCN)NC(=O)[C@H](CO)NC(=O)[C@H](Cc1ccc(O)cc1)NC(=O)[C@H](CC(=O)O)NC(=O)[C@H](CO)NC(=O)[C@@H](NC(=O)[C@H](Cc1ccccc1)NC(=O)[C@@H](NC(=O)CNC(=O)[C@H](CCC(N)=O)NC(=O)[C@H](CO)NC(=O)[C@@H](N)Cc1c[nH]cn1)[C@@H](C)O)[C@@H](C)O)C(=O)N[C@@H](C)C(=O)N[C@@H](C)C(=O)N[C@@H](Cc1c[nH]cn1)C(=O)N[C@@H](CC(=O)O)C(=O)N[C@@H](Cc1ccccc1)C(=O)N[C@H](C(=O)N[C@@H](CCC(=O)O)C(=O)N[C@@H](Cc1c[nH]c2ccccc12)C(=O)N[C@@H](CC(C)C)C(=O)N[C@@H](CC(C)C)C(=O)N[C@@H](CCCNC(=N)N)C(=O)N[C@@H](C)C(N)=O)C(C)C)C(=O)O [Compound 262] (H-HSQGTFTSDYSKYLDSK([γGlu-Palmitoyl])AAHDFVEWLLRA-NH2) | 0.11 nM | –
6 | CCCCCCCCCCCCCCCC(=O)NCCCCCCCC(=O)NCCCC[C@H](NC(=O)[C@H](CO)NC(=O)[C@H](CC(=O)O)NC(=O)[C@H](CC(C)C)NC(=O)[C@H](Cc1ccc(O)cc1)NC(=O)[C@H](CCCCN)NC(=O)[C@H](CO)NC(=O)[C@H](Cc1ccc(O)cc1)NC(=O)[C@H](CC(=O)O)NC(=O)[C@H](CO)NC(=O)[C@@H](NC(=O)[C@H](Cc1ccccc1)NC(=O)[C@@H](NC(=O)CNC(=O)[C@H](CCC(N)=O)NC(=O)C(C)(C)NC(=O)[C@@H](N)Cc1c[nH]cn1)[C@@H](C)O)[C@@H](C)O)C(=O)N[C@@H](C)C(=O)N[C@@H](C)C(=O)N[C@@H](Cc1c[nH]cn1)C(=O)N[C@@H](CC(=O)O)C(=O)N[C@@H](Cc1ccccc1)C(=O)N[C@H](C(=O)N[C@@H](CCC(=O)O)C(=O)N[C@@H](Cc1c[nH]c2ccccc12)C(=O)N[C@@H](CC(C)C)C(=O)N[C@@H](CC(C)C)C(=O)N[C@@H](CO)C(=O)N[C@@H](C)C(N)=O)C(C)C [Compound 216] | 0.24 nM | –
7 | H-HSQGTFTSDYSKYLDSKAAQDFVWLMNT-NH2 [Compound 260] | – | 0.07 nM
8 | H-HSQGTFTSDYSRYLDERRAQDFVWLMNT-NH2 [Compound 258] | – | 0.06 nM
9 | CSCC[C@H](NC(=O)[C@H](CC(C)C)NC(=O)[C@H](Cc1c[nH]c2ccccc12)NC(=O)[C@@H](NC(=O)[C@H](Cc1ccccc1)NC(=O)[C@H](CC(=O)O)NC(=O)[C@@H]1CCC(=O)NCCCC[C@H](NC(=O)[C@H](CC(=O)O)NC(=O)[C@H](CC(C)C)NC(=O)[C@H](Cc2ccc(O)cc2)NC(=O)[C@H](CCCCN)NC(=O)[C@H](CO)NC(=O)[C@H](Cc2ccc(O)cc2)NC(=O)[C@H](CC(=O)O)NC(=O)[C@H](CO)NC(=O)[C@@H](NC(=O)[C@H](Cc2ccccc2)NC(=O)[C@@H](NC(=O)CNC(=O)[C@H](CCC(N)=O)NC(=O)[C@H](CO)NC(=O)[C@@H](N)Cc2c[nH]cn2)[C@@H](C)O)[C@@H](C)O)C(=O)N[C@@H](CCCNC(=N)N)C(=O)N[C@@H](CCCNC(=N)N)C(=O)N[C@@H](C)C(=O)N1)C(C)C)C(=O)N[C@@H](CC(N)=O)C(=O)N[C@H](C(N)=O)[C@@H](C)O [Compound 257] (H-HSQGTFTSDYSKYLDKRRAEDFVWLMNT-NH2; lactam 16-20) | 0.1 nM | –
10 | CCCCCCCCCCCCCCCC(=O)N[C@@H](CCC(=O)NCCCC[C@H](NC(=O)[C@H](CC(=O)O)NC(=O)[C@H](CC(C)C)NC(=O)[C@H](Cc1ccc(O)cc1)NC(=O)[C@H](CCCCN)NC(=O)[C@H](CO)NC(=O)[C@H](Cc1ccc(O)cc1)NC(=O)[C@H](CC(=O)O)NC(=O)[C@H](CO)NC(=O)[C@@H](NC(=O)[C@H](Cc1ccccc1)NC(=O)[C@@H](NC(=O)CNC(=O)[C@H](CCC(N)=O)NC(=O)[C@H](CO)NC(=O)[C@@H](N)Cc1c[nH]cn1)[C@@H](C)O)[C@@H](C)O)C(=O)N[C@@H](CCCCN)C(=O)N[C@@H](C)C(=O)N[C@@H](C)C(=O)N[C@@H](Cc1c[nH]cn1)C(=O)N[C@@H](CC(=O)O)C(=O)N[C@@H](Cc1ccccc1)C(=O)N[C@H](C(=O)N[C@@H](CCC(=O)O)C(=O)N[C@@H](Cc1c[nH]c2ccccc12)C(=O)N[C@@H](CC(C)C)C(=O)N[C@@H](CC(C)C)C(=O)N[C@@H](CCCNC(=N)N)C(=O)N[C@@H](C)C(N)=O)C(C)C)C(=O)O [Compound 202] (H-HSQGTFTSDYSKYLDK([γGlu-Palmitoyl])KAAHDFVEWLLRA-NH2) | 0.2 nM | –
11 | H-HSQGTFTSDYSKYLDSKAAHDFVEWLLRA-NH2 [Compound 48] | – | 0.06 nM

The remaining lines, values ahead:

Row | EC50 (human GLP-1R) | EC50 (human glucagon receptor) | Compound
12 | 0.1 nM | 0.16 nM | CCCCCCCCCCCCCCCC(=O)N[C@@H](CCC(=O)NCCCC[C@H](NC(=O)[C@H](CCC(=O)O)NC(=O)[C@H](CC(=O)O)NC(=O)[C@H](CC(C)C)NC(=O)[C@H](Cc1ccc(O)cc1)NC(=O)[C@H](CCCCN)NC(=O)[C@H](CO)NC(=O)[C@H](Cc1ccc(O)cc1)NC(=O)[C@H](CC(=O)O)NC(=O)[C@H](CO)NC(=O)[C@@H](NC(=O)[C@H](Cc1ccccc1)NC(=O)[C@@H](NC(=O)CNC(=O)[C@H](CCC(N)=O)NC(=O)C(C)(C)NC(=O)[C@@H](N)Cc1c[nH]cn1)[C@@H](C)O)[C@@H](C)O)C(=O)N[C@@H](CCCNC(=N)N)C(=O)N[C@@H](C)C(=O)N[C@@H](CCCCN)C(=O)N[C@@H](CC(=O)O)C(=O)N[C@@H](Cc1ccccc1)C(=O)N[C@H](C(=O)N[C@@H](CCC(=O)O)C(=O)N[C@@H](Cc1c[nH]c2ccccc12)C(=O)N[C@@H](CC(C)C)C(=O)N[C@@H](CC(C)C)C(=O)N[C@@H](CO)C(=O)N[C@@H](C)C(N)=O)[C@@H](C)CC)C(=O)O [Compound 263] (H-H[Aib]QGTFTSDYSKYLDEK([γGlu-Palmitoyl])RAKDFIEWLLSA-NH2)
13 | 0.3 nM | 0.1 nM | H-HSQGTFTSDYSKYLDSRYAQDFVWLMNT-NH2 [Compound 247]
14 | 0.08 nM | – | CCCCCCCCCCCCCCCC(=O)N[C@@H](CCC(=O)NCCCC[C@H](NC(=O)[C@H](CO)NC(=O)[C@H](CC(=O)O)NC(=O)[C@H](CC(C)C)NC(=O)[C@H](Cc1ccc(O)cc1)NC(=O)[C@H](CCCCN)NC(=O)[C@H](CO)NC(=O)[C@H](Cc1ccc(O)cc1)NC(=O)[C@H](CC(=O)O)NC(=O)[C@H](CO)NC(=O)[C@@H](NC(=O)[C@H](Cc1ccccc1)NC(=O)[C@@H](NC(=O)CNC(=O)[C@H](CCC(N)=O)NC(=O)C(C)(C)NC(=O)[C@@H](N)Cc1c[nH]cn1)[C@@H](C)O)[C@@H](C)O)C(=O)N[C@@H](C)C(=O)N[C@@H](C)C(=O)N[C@@H](Cc1c[nH]cn1)C(=O)N[C@@H](CC(=O)O)C(=O)N[C@@H](Cc1ccccc1)C(=O)N[C@H](C(=O)N[C@H]1CCC(=O)NCCCC[C@@H](C(=O)N[C@@H](C)C(N)=O)NC(=O)[C@H](CC(C)C)NC(=O)[C@H](CC(C)C)NC(=O)[C@H](Cc2c[nH]c3ccccc23)NC1=O)C(C)C)C(=O)O [Compound 210] (H-H[Aib]QGTFTSDYSKYLDSK([γGlu-Palmitoyl])AAHDFVEWLLKA-NH2; lactam 24-28)
15 | 0.09 nM | – | CC(C)C[C@H](NC(=O)[C@H](CC(C)C)NC(=O)[C@H](Cc1c[nH]c2ccccc12)NC(=O)[C@H](CCC(=O)O)NC(=O)[C@@H](NC(=O)[C@H](Cc1ccccc1)NC(=O)[C@H](CC(=O)O)NC(=O)[C@H](Cc1c[nH]cn1)NC(=O)[C@H](C)NC(=O)[C@H](C)NC(=O)[C@H](CCCCN)NC(=O)[C@H](CO)NC(=O)[C@H](CC(=O)O)NC(=O)[C@H](CC(C)C)NC(=O)[C@H](Cc1ccc(O)cc1)NC(=O)[C@H](CCCCN)NC(=O)[C@H](CO)NC(=O)[C@H](Cc1ccc(O)cc1)NC(=O)[C@H](CC(=O)O)NC(=O)[C@H](CO)NC(=O)[C@@H](NC(=O)[C@H](Cc1ccccc1)NC(=O)[C@@H](NC(=O)CNC(=O)[C@H](CCC(N)=O)NC(=O)[C@@H](CO)NC(=O)[C@@H](N)Cc1c[nH]cn1)[C@@H](C)O)[C@@H](C)O)C(C)C)C(=O)N[C@@H](CCCNC(=N)N)C(=O)N[C@@H](C)C(N)=O [Compound 44] (H-H[dS]QGTFTSDYSKYLDSKAAHDFVEWLLRA-NH2)
16 | 0.23 nM | – | CCCCCCCCCCCCCCCC(=O)NCCC(=O)NCCCC[C@H](NC(=O)[C@H](CO)NC(=O)[C@H](CC(=O)O)NC(=O)[C@H](CC(C)C)NC(=O)[C@H](Cc1ccc(O)cc1)NC(=O)[C@H](CCCCN)NC(=O)[C@H](CO)NC(=O)[C@H](Cc1ccc(O)cc1)NC(=O)[C@H](CC(=O)O)NC(=O)[C@H](CO)NC(=O)[C@@H](NC(=O)[C@H](Cc1ccccc1)NC(=O)[C@@H](NC(=O)CNC(=O)[C@H](CCC(N)=O)NC(=O)C(C)(C)NC(=O)[C@@H](N)Cc1c[nH]cn1)[C@@H](C)O)[C@@H](C)O)C(=O)N[C@@H](C)C(=O)N[C@@H](C)C(=O)N[C@@H](Cc1c[nH]cn1)C(=O)N[C@@H](CC(=O)O)C(=O)N[C@@H](Cc1ccccc1)C(=O)N[C@H](C(=O)N[C@@H](CCC(=O)O)C(=O)N[C@@H](Cc1c[nH]c2ccccc12)C(=O)N[C@@H](CC(C)C)C(=O)N[C@@H](CC(C)C)C(=O)N[C@@H](CO)C(=O)N[C@@H](C)C(N)=O)C(C)C [Compound 215]
